Consider twelve substances from patent publication US20170182087A1, “MAIN CHAIN POLYAMINES” (priority 2014, published 2017).

The data set relates to human renal proximal tubule epithelial cells (RPTEC). Briefly: Cytotoxicity Assay, RPTEC Cells. The data set is classed as cell-based. Here is the method: Cells were plated at 3,000 cells/well (RPTEC) in 96-well plates and were incubated overnight at 37° C. The compounds were added to the wells, and the cells were incubated for 4 days. Alomar Blue was added to one set of plates and incubated for 4 hours. The plates were read when the compound was added (time zero) and at the end of the study. Fluorescence was read using 530 nm (excitation) and 590 nm (emission) according to the manufacturer's instructions.

For the substance “Poly(1,3-bis N-(1,4-dimethybenzene)piperidin-4-yl)propane)”, the Cytotoxicity (Kidney Epithelial IC50) is 1.5 µg/mL.

Take “Poly(1,3-bis(1,5-dimethybenzene)piperidin-4-yl)propane)”: the Cytotoxicity (Kidney Epithelial IC50) came to 1.5 µg/mL.

Consider “Poly(1,3-bis(1-pentyl-piperidin-4-yl)propane [4,4′-Trimethylenedipiperidine/Glutaraldehyde (1:1.5) <10K]”, for which the Cytotoxicity (Kidney Epithelial IC50) amounted to 4 µg/mL.

Substance “Poly(1,3-bis(1-pentyl-piperidin-4-yl)propane [4,4′-Trimethylenedipiperidine/Glutaraldehyde (1:1.5) >10K]” yielded a Cytotoxicity (Kidney Epithelial IC50) of 5 µg/mL.

Consider “Poly(1,3-bis(1-pentyl-piperidin-4-yl)propane [4,4′-Trimethylenedipiperidine/Glutaraldehyde (1:2.5) <10K]”, for which the Cytotoxicity (Kidney Epithelial IC50) stood at 2 µg/mL.

Substance “Poly(1,3-bis(1-pentyl-piperidin-4-yl)propane [4,4′-Trimethylenedipiperidine/Glutaraldehyde (1:3.5) <10K]” returned a Cytotoxicity (Kidney Epithelial IC50) of 2 µg/mL.

In turn, “Poly(1,3-bis(1-pentyl-piperidin-4-yl)propane [4,4′-Trimethylenedipiperidine/Glutaraldehyde <10K]” gave a Cytotoxicity (Kidney Epithelial IC50) of 331 µg/mL.

The substance “Poly(1,3-bis(1-pentyl-piperidin-4-yl)propane [4,4′-Trimethylenedipiperidine/Glutaraldehyde >10K]” showed a Cytotoxicity (Kidney Epithelial IC50) of 1.5 µg/mL.

Take “Poly(1,3-bis(1-pentyl-piperidin-4-yl)propane [Poly(4,4′-Trimethylenedipiperidine/Glutaraldehyde (1:1)), <1]”: the Cytotoxicity (Kidney Epithelial IC50) came to 2 µg/mL.

In the case of “Poly(1,3-bis(1-pentyl-piperidin-4-yl)propane [Poly(4,4′-Trimethylenedipiperidine/Glutaraldehyde (1:1)), >1]”, the Cytotoxicity (Kidney Epithelial IC50) was found to be 2 µg/mL.

In turn, “Poly((1,1′-dipentyl)-4,4-dipiperidine) [4,4′-dipiperidine/Glutaraldehyde <10K]” showed a Cytotoxicity (Kidney Epithelial IC50) of 1.5 µg/mL.

Turning to “Poly((1,1′-dipentyl)-4,4-dipiperidine) [Poly(1:1 Dipiperidine:Glutaraldehyde); <10K molecular weight]”, the Cytotoxicity (Kidney Epithelial IC50) is 2 µg/mL.
